According to patent publication US10194659B2, “Active compound combinations” (BAYER CROPSCIENCE AKTIENGESELLSCHAFT, priority 2014, dated 2019):
Several values for one entry are separate records, joined by “and”; a condition that tells them apart may be missing. Equal entries are not always repeated.

Columns and labels:
Botrytis cinerea = test: In vivo preventive test on Botrytis test (beans); conditions: lesion size evaluated 2 days after inoculation
Method: To produce a suitable preparation of active compound, 1 part by weight of active compound is mixed with the stated amounts of solvent and emulsifier, and the concentrate is diluted with water to the desired concentration. To test for preventive activity, young plants are sprayed with the preparation of active compound. After the spray coating has dried on, 2 small pieces of agar covered with growth of Botrytis cinerea are placed on each leaf. The inoculated plants are placed in a darkened chamber at 20° C. and a relative atmospheric humidity of 100%.
2 days after the inoculation, the size of the lesions on the leaves is evaluated. 0% means an efficacy which corresponds to that of the untreated control, while an efficacy of 100% means that no disease is observed.

Phakopsora pachyrhizi = test: In vivo preventive test on Phakopsora test (soybeans); conditions: evaluated 7 days after inoculation
Method: To produce a suitable preparation of active compound, 1 part by weight of active compound is mixed with the stated amounts of solvent and emulsifier, and the concentrate is diluted with water to the desired concentration. To test for preventive activity, young plants are sprayed with the preparation of active compound at the stated rate of application. After the spray coating has dried on, the plants are inoculated with an aqueous spore suspension of the causal agent of soybean rust (Phakopsora pachyrhizi) and stay for 24 h without light in an incubation cabinet at approximately 24° C. and a relative atmospheric humidity of 95%. The plants remain in the incubation cabinet at approximately 24° C. and a relative atmospheric humidity of approximately 80% and a day/night interval of 12h.
(§1) The test is evaluated 7 days after the inoculation. 0% means an efficacy which corresponds to that of the untreated control, while an efficacy of 100% means that no disease is observed.

Venturia inaequalis = test: In vivo preventive test on Venturia test (apples); conditions: evaluated 10 days after inoculation
Method: (§2) To produce a suitable preparation of active compound, 1 part by weight of active compound is mixed with the stated amounts of solvent and emulsifier, and the concentrate is diluted with water to the desired concentration. To test for preventive activity, young plants are sprayed with the preparation of active compound at the stated rate of application. After the spray coating has dried on, the plants are inoculated with an aqueous conidia suspension of the causal agent of apple scab (Venturia inaequalis) and then remain for 1 day in an incubation cabinet at approximately 20° C. and a relative atmospheric humidity of 100%. The plants are then placed in a greenhouse at approximately 21° C. and a relative atmospheric humidity of approximately 90%.
The test is evaluated 10 days after the inoculation. 0% means an efficacy which corresponds to that of the untreated control, while an efficacy of 100% means that no disease is observed.

Alternaria solani = test: In vivo preventive test on Alternaria test (tomatoes); conditions: evaluated 3 days after inoculation
Method: as §2, with “spore” for “conidia”, “Alternaria solani. The plants are” for “the causal agent of apple scab (Venturia inaequalis) and”, “placed” for “remain for 1 day”, “100%.” for “100%. The plants are then placed in a greenhouse at approximately 21° C. and a relative atmospheric humidity of approximately 90%.”
The test is evaluated 3 days after the inoculation. 0% means an efficacy which corresponds to that of the untreated control while an efficacy of 100% means that no disease is observed.

Septoria tritici = test: In vivo preventive Septoria tritici test (wheat); conditions: evaluated 21 days after inoculation
Method: (§3) To produce a suitable preparation of active compound, 1 part by weight of active compound or active compound combination is mixed with the stated amounts of solvent and emulsifier, and the concentrate is diluted with water to the desired concentration. To test for preventive activity, young plants are sprayed with the preparation of active compound or active compound combination at the stated rate of application. After the spray coating has been dried, the plants are sprayed with a spore suspension of Septoria tritici. The plants remain for 48 hours in an incubation cabinet at approximately 20° C. and a relative atmospheric humidity of approximately 100% and afterwards for 60 hours at approximately 15° C. in a translucent incubation cabinet at a relative atmospheric humidity of approximately 100%. The plants are placed in the greenhouse at a temperature of approximately 15° C. and a relative atmospheric humidity of approximately 80%.
The test is evaluated 21 days after the inoculation. 0% means an efficacy which corresponds to that of the untreated control, while an efficacy of 100% means that no disease is observed.

Pyrenophora teres = test: In vivo preventive Pyrenophora teres test (barley); conditions: evaluated 8 days after inoculation
Method: as §3, with “Pyrenophora teres.” for “Septoria tritici.”, “approximately” for “approximately 100% and afterwards for 60 hours at approximately 15° C. in a translucent incubation cabinet at a relative atmospheric humidity of approximately”, “20°” for “15°”
(§4) The test is evaluated 8 days after the inoculation. 0% means an efficacy which corresponds to that of the untreated control, while an efficacy of 100% means that no disease is observed.

[1] = system: Blumeria graminis f.sp. hordei; test: In vivo preventive Blumeria test (barley); conditions: evaluated 7 days after inoculation
Method: To produce a suitable preparation of active compound, 1 part by weight of active compound or active compound combination is mixed with the stated amounts of solvent and emulsifier, and the concentrate is diluted with water to the desired concentration. To test for preventive activity, young plants are sprayed with the preparation of active compound or active compound combination at the stated rate of application. After the spray coating has been dried, the plants are dusted with spores of Blumeria graminis f.sp. hordei. The plants are placed in the greenhouse at a temperature of approximately 18° C. and a relative atmospheric humidity of approximately 80% to promote the development of mildew pustules.
as §1

Leptosphaeria nodorum = test: In vivo preventive Leptosphaeria nodorum test (wheat); conditions: evaluated 8 days after inoculation
Method: as §3, with “Leptosphaeria nodorum.” for “Septoria tritici.”, “approximately” for “approximately 100% and afterwards for 60 hours at approximately 15° C. in a translucent incubation cabinet at a relative atmospheric humidity of approximately”, “25°” for “15°”
as §4

Puccinia triticina = test: In vivo preventive Puccinia triticina test (wheat); conditions: evaluated 8 days after inoculation
Method: as §3, with “Puccinia triticina.” for “Septoria tritici.”, “approximately” for “approximately 100% and afterwards for 60 hours at approximately 15° C. in a translucent incubation cabinet at a relative atmospheric humidity of approximately”, “20°” for “15°”
as §4

Row | Compound | Efficacy in % found (Botrytis cinerea; 1 ppm a.i.) | Efficacy in % found (Phakopsora pachyrhizi; 0.25 ppm a.i.) | Efficacy in % found (Phakopsora pachyrhizi; 0.5 ppm a.i.) [%] | Efficacy in % found (Phakopsora pachyrhizi; 1 ppm a.i.) [%] | Efficacy in % found (Venturia inaequalis; 0.5 ppm a.i.) | Efficacy in % found (Alternaria solani; 0.25 ppm a.i.) | Efficacy in % found (Alternaria solani; 0.5 ppm a.i.) [%] | Efficacy in % found (Alternaria solani; 1 ppm a.i.) | Efficacy in % found (Botrytis cinerea; 0.25 ppm a.i.) [%] | Efficacy in % found (Botrytis cinerea; 0.5 ppm a.i.) [%] | Efficacy in % found (Pyrenophora teres; 25 ppm a.i.) [%] | Efficacy in % found (Pyrenophora teres; 50 ppm a.i.) [%] | Efficacy in % found (Venturia inaequalis; 1 ppm a.i.) [%] | other results
1 | Cn1cc(C(=O)Nc2ccccc2-c2cc(F)c(F)c(F)c2)c(C(F)F)n1 [1.008, fluxapyroxad, reference compound] | 8% and 0% | 9% and 0% | 0 | 0 | 8% and 10% | 15% and 8% | 45 | 55% and 78% |  |  |  |  |  | 
2 | CC1CC(C)(C)c2cccc(NC(=O)c3cn(C)nc3C(F)F)c21 (centres unmarked) [1.032, 3-(difluoromethyl)-1-methyl-N-(1,1,3-trimethyl-2,3-dihydro-1H-inden-4-yl)-1H-pyrazole-4-carboxamide, reference compound] |  | 0% | 0 | 0 | 0% |  | 0 | 15% and 8% | 18 | 0 |  |  |  | 
3 | CCC1CC(C)(C)c2cccc(NC(=O)c3cccnc3C(F)F)c21 (centres unmarked) [(I-3), 2-(difluoromethyl)-N-(3-ethyl-1,1-dimethyl-2,3-dihydro-1H-inden-4-yl)nicotinamide] | 0% | 24% | 71 |  | 11% | 15% | 45 | 45% | 0 | 4 | 13 | 38 |  | Efficacy in % found (Septoria tritici; 25 ppm a.i.): 17%; Efficacy in % found (Septoria tritici; 50 ppm a.i.): 83%; Efficacy in % found (Pyrenophora teres; 100 ppm a.i.): 50%; Efficacy in % found ([1]; 50 ppm a.i.): 29%; Efficacy in % found ([1]; 100 ppm a.i.): 57%
4 | CC[C@@H]1CC(C)(C)c2cccc(NC(=O)c3cccnc3C(F)F)c21 [(I-4), 2-(difluoromethyl)-N-[(3R)-3-ethyl-1,1-dimethyl-2,3-dihydro-1H-inden-4-yl]nicotinamide] |  | 35% |  | 87 | 12% | 23% | 30 | 55% |  |  | 22 | 33 | 21 | Efficacy in % found (Leptosphaeria nodorum; 25 ppm a.i.): 0%; Efficacy in % found (Pyrenophora teres; 12.5 ppm a.i.): 22%; Efficacy in % found ([1]; 25 ppm a.i.): 0%; Efficacy in % found (Puccinia triticina; 12.5 ppm a.i.): 80%
5 | CCCC1CC(C)(C)c2cccc(NC(=O)c3cccnc3C(F)F)c21 (centres unmarked) [(I-5), 2-(difluoromethyl)-N-(1,1-dimethyl-3-propyl-2,3-dihydro-1H-inden-4-yl)nicotinamide] | 0% | 78% | 84 | 85 | 0% | 0% | 8 | 15% |  |  | 0 | 0 | 15 | Efficacy in % found (Pyrenophora teres; 100 ppm a.i.): 50%; Efficacy in % found (Venturia inaequalis; 0.25 ppm a.i.): 0%; Efficacy in % found (Puccinia triticina; 25 ppm a.i.): 50%
6 | CCC[C@@H]1CC(C)(C)c2cccc(NC(=O)c3cccnc3C(F)F)c21 [(I-6), 2-(difluoromethyl)-N-[(3R)-1,1-dimethyl-3-propyl-2,3-dihydro-1H-inden-4-yl]nicotinamide] |  |  | 92 |  | 5% | 15% | 23 | 45% | 0 | 0 |  |  | 10 | Efficacy in % found (Venturia inaequalis; 0.25 ppm a.i.): 0%; Efficacy in % found ([1]; 50 ppm a.i.): 40%; Efficacy in % found (Puccinia triticina; 25 ppm a.i.): 90%
7 | fluopyram [1.006, reference compound] |  |  |  |  |  |  |  |  |  |  |  | 75 |  | Efficacy in % found (Leptosphaeria nodorum; 12.5 ppm a.i.): 14%; Efficacy in % found (Leptosphaeria nodorum; 25 ppm a.i.): 14%; Efficacy in % found (Septoria tritici; 25 ppm a.i.): 17%; Efficacy in % found (Pyrenophora teres; 12.5 ppm a.i.): 33%; Efficacy in % found ([1]; 100 ppm a.i.): 71%; Efficacy in % found (Puccinia triticina; 12.5 ppm a.i.): 0%
